Results on two compounds are retold here after ChEMBL document CHEMBL1151006, “Synthesis of bicyclic thiazolidine PAF antagonists” (Bioorg Med Chem Lett, 1993).

The data set is described as follows: Half life in rats after intravenous administration. It is filed as ADME, organism-based. Conditions: rat, in vivo.

The structures appear in SMILES notation.

Consider `O=C(c1ccccc1)c1cccc(NC(=O)[C@@H]2CSC(c3cccnc3)N2)c1` (some centres not stated), for which the half-life was 60 min.
Then `O=C(c1ccccc1)c1cccc(NC(=O)[C@H]2OC(=O)N3[C@@H](c4cccnc4)SC[C@@H]23)c1`, with 42 min.

For orientation: half-life means the time needed for the level to fall by half in the phase considered. A higher half-life goes with slow loss.
